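How tested: cells in 96-well plates exposed to compound for 48 hours at five concentrations. GI50 marks 50% less growth. At the TGI there is no net growth.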
Tests used:
Assay in all cases: NCI tumour cell line growth inhibition, 48 h
786-0 renal = test system: 786-0 renal
HCT-15 colon = test system: HCT-15 colon
KM12 colon = test system: KM12 colon
UACC-257 melanoma = test system: UACC-257 melanoma
MOLT-4 leukemia = test system: MOLT-4 leukemia
M14 melanoma = test system: M14 melanoma
HS 578T breast = test system: HS 578T breast
OVCAR-8 ovarian = test system: OVCAR-8 ovarian
SW-620 colon = test system: SW-620 colon
HOP-92 NSCLC = test system: HOP-92 NSCLC
IGROV1 ovarian = test system: IGROV1 ovarian
SF-539 CNS = test system: SF-539 CNS
DU-145 prostate = test system: DU-145 prostate
SK-MEL-28 melanoma = test system: SK-MEL-28 melanoma
SR leukemia = test system: SR leukemia
SK-OV-3 ovarian = test system: SK-OV-3 ovarian
SN12C renal = test system: SN12C renal
NCI-H460 lung = test system: NCI-H460 lung
NCI-H226 lung = test system: NCI-H226 lung
MCF7 breast = test system: MCF7 breast
TK-10 renal = test system: TK-10 renal
CCRF-CEM leukemia = test system: CCRF-CEM leukemia
U251 CNS = test system: U251 CNS
HCC-2998 colon = test system: HCC-2998 colon
LOX IMVI melanoma = test system: LOX IMVI melanoma
HL-60(TB) leukemia = test system: HL-60(TB) leukemia
HOP-62 NSCLC = test system: HOP-62 NSCLC
SK-MEL-5 melanoma = test system: SK-MEL-5 melanoma
ACHN renal = test system: ACHN renal
A549 NSCLC = test system: A549 NSCLC
NCI-H23 lung = test system: NCI-H23 lung
HCT-116 colon = test system: HCT-116 colon
COLO 205 colon = test system: COLO 205 colon
RPMI-8226 leukemia = test system: RPMI-8226 leukemia
NCI/ADR-RES ovarian = test system: NCI/ADR-RES ovarian
SNB-19 CNS = test system: SNB-19 CNS
OVCAR-4 ovarian = test system: OVCAR-4 ovarian
SF-268 CNS = test system: SF-268 CNS
MDA-MB-435 = test system: MDA-MB-435
HT29 colon = test system: HT29 colon
EKVX NSCLC = test system: EKVX NSCLC
MDA-MB-468 breast = test system: MDA-MB-468 breast
SF-295 CNS = test system: SF-295 CNS
OVCAR-5 ovarian = test system: OVCAR-5 ovarian
T-47D breast = test system: T-47D breast
MALME-3M melanoma = test system: MALME-3M melanoma
CAKI-1 renal = test system: CAKI-1 renal
OVCAR-3 ovarian = test system: OVCAR-3 ovarian
UACC-62 melanoma = test system: UACC-62 melanoma
BT-549 breast = test system: BT-549 breast
NCI-H522 lung = test system: NCI-H522 lung
K-562 leukemia = test system: K-562 leukemia
RXF 393 renal = test system: RXF 393 renal
PC-3 prostate = test system: PC-3 prostate
A498 renal = test system: A498 renal

In the case of `CC(C)C[C@H](NC(=O)CNC(=O)C[C@H]1O[C@@H]2OC3(C)CC[C@H]4[C@H](C)CC[C@@H]([C@H]1C)[C@@]24OO3)B(O)O`, the GI50 (786-0 renal) is reported as 3320 nM, the TGI (786-0 renal) is reported as > 65000 nM and the GI50 (HCT-15 colon) is reported as 5520 nM. For the same compound, the TGI (HCT-15 colon) was 16500 nM, the GI50 (KM12 colon) was 1670 nM and the TGI (KM12 colon) was 4450 nM. The GI50 (UACC-257 melanoma) was 818 nM, the TGI (UACC-257 melanoma) was 2140 nM and the GI50 (MOLT-4 leukemia) was 267 nM. It also gave a TGI (MOLT-4 leukemia) of 5190 nM, a GI50 (M14 melanoma) of 1240 nM and a TGI (M14 melanoma) of 3460 nM. For the same compound, the GI50 (HS 578T breast) was 1910 nM, the TGI (HS 578T breast) was > 65000 nM and the GI50 (OVCAR-8 ovarian) was 1990 nM. For the same compound, the TGI (OVCAR-8 ovarian) was 8040 nM, the GI50 (SW-620 colon) was 437 nM and the TGI (SW-620 colon) was 8240 nM. It also gave a GI50 (HOP-92 NSCLC) of 1500 nM, a TGI (HOP-92 NSCLC) of 4900 nM and a GI50 (IGROV1 ovarian) of 2690 nM. It also gave a TGI (IGROV1 ovarian) of 13800 nM, a GI50 (SF-539 CNS) of 370 nM and a TGI (SF-539 CNS) of 1540 nM. The GI50 (DU-145 prostate) was 7320 nM, the TGI (DU-145 prostate) was > 65000 nM and the GI50 (SK-MEL-28 melanoma) was 716 nM. The TGI (SK-MEL-28 melanoma) was 3370 nM, the GI50 (SR leukemia) was 188 nM and the TGI (SR leukemia) was 805 nM. It also gave a GI50 (SK-OV-3 ovarian) of 4130 nM, a TGI (SK-OV-3 ovarian) of 38200 nM and a GI50 (SN12C renal) of 1920 nM. It also gave a TGI (SN12C renal) of 7920 nM, a GI50 (NCI-H460 lung) of 3540 nM and a TGI (NCI-H460 lung) of 18900 nM. The GI50 (NCI-H226 lung) was 455 nM, the TGI (NCI-H226 lung) was 1500 nM and the GI50 (MCF7 breast) was 349 nM. For the same compound, the TGI (MCF7 breast) was > 65000 nM, the GI50 (TK-10 renal) was 2340 nM and the TGI (TK-10 renal) was 51400 nM. The GI50 (CCRF-CEM leukemia) was 251 nM, the TGI (CCRF-CEM leukemia) was 2740 nM and the GI50 (U251 CNS) was 2390 nM. For the same compound, the TGI (U251 CNS) was 14500 nM, the GI50 (HCC-2998 colon) was 1170 nM and the TGI (HCC-2998 colon) was 2210 nM. The GI50 (LOX IMVI melanoma) was 753 nM, the TGI (LOX IMVI melanoma) was 1680 nM and the GI50 (HL-60(TB) leukemia) was 210 nM. The TGI (HL-60(TB) leukemia) was 4620 nM, the GI50 (HOP-62 NSCLC) was 3050 nM and the TGI (HOP-62 NSCLC) was 14700 nM. It also gave a GI50 (SK-MEL-5 melanoma) of 1090 nM, a TGI (SK-MEL-5 melanoma) of 2270 nM and a GI50 (ACHN renal) of 4750 nM. For the same compound, the TGI (ACHN renal) was > 65000 nM, the GI50 (A549 NSCLC) was 3030 nM and the TGI (A549 NSCLC) was > 65000 nM. For the same compound, the GI50 (NCI-H23 lung) was 1680 nM, the TGI (NCI-H23 lung) was 8450 nM and the GI50 (HCT-116 colon) was 437 nM. The TGI (HCT-116 colon) was 1750 nM, the GI50 (COLO 205 colon) was 2640 nM and the TGI (COLO 205 colon) was 13800 nM. For the same compound, the GI50 (RPMI-8226 leukemia) was 184 nM, the TGI (RPMI-8226 leukemia) was 604 nM and the GI50 (NCI/ADR-RES ovarian) was 55300 nM. The TGI (NCI/ADR-RES ovarian) was > 65000 nM, the GI50 (SNB-19 CNS) was 3440 nM and the TGI (SNB-19 CNS) was > 65000 nM. The GI50 (OVCAR-4 ovarian) was 3040 nM, the TGI (OVCAR-4 ovarian) was > 65000 nM and the GI50 (SF-268 CNS) was 2390 nM. For the same compound, the TGI (SF-268 CNS) was > 65000 nM, the GI50 (MDA-MB-435) was 275 nM and the TGI (MDA-MB-435) was 1690 nM. The GI50 (HT29 colon) was 983 nM, the TGI (HT29 colon) was 3460 nM and the GI50 (EKVX NSCLC) was 5950 nM. For the same compound, the TGI (EKVX NSCLC) was > 65000 nM, the GI50 (MDA-MB-468 breast) was 341 nM and the TGI (MDA-MB-468 breast) was 1560 nM. It also gave a GI50 (SF-295 CNS) of 2170 nM, a TGI (SF-295 CNS) of 9460 nM and a GI50 (OVCAR-5 ovarian) of 1680 nM. For the same compound, the TGI (OVCAR-5 ovarian) was 10300 nM, the GI50 (T-47D breast) was 771 nM and the TGI (T-47D breast) was 2930 nM. For the same compound, the GI50 (MALME-3M melanoma) was 719 nM, the TGI (MALME-3M melanoma) was 2790 nM and the GI50 (CAKI-1 renal) was 24300 nM. For the same compound, the TGI (CAKI-1 renal) was > 65000 nM, the GI50 (OVCAR-3 ovarian) was 583 nM and the TGI (OVCAR-3 ovarian) was 3120 nM. It also gave a GI50 (UACC-62 melanoma) of 958 nM, a TGI (UACC-62 melanoma) of 2210 nM and a GI50 (BT-549 breast) of 261 nM. The TGI (BT-549 breast) was 1220 nM, the GI50 (NCI-H522 lung) was 531 nM and the TGI (NCI-H522 lung) was 1670 nM. For the same compound, the GI50 (K-562 leukemia) was 1920 nM, the TGI (K-562 leukemia) was > 65000 nM and the GI50 (RXF 393 renal) was 162 nM. For the same compound, the TGI (RXF 393 renal) was 556 nM, the GI50 (PC-3 prostate) was 2520 nM and the TGI (PC-3 prostate) was 57800 nM. For the same compound, the GI50 (A498 renal) was 5480 nM and the TGI (A498 renal) was > 65000 nM.
